# Key:
# [1] = Survey of relative performance of fluorescent derivatizing agents against a cooling water background; assay type: physicochemical; conditions: for Fluorescent Maximum, emission (em) / Fluorescent Maximum, excitation (ex): 0.4 ppm (acid actives) aqueous solution; for Relative Intensity Value, Composition: 0.4 ppm (acid actives), 1,5-naphthalene disulfonic acid standard = 100%, at own fluorescence maximum; for Relative Performance: composition relative intensity / cooling water background relative intensity
# Excerpt: In preferred embodiment the derivatizing agents are selected from those that a reasonably high "relative performance" for a given background. As noted above, a molecule is generally considered highly fluorescent when it has a fluorescent quantum efficiency, or fluorescent quantum yield, within the range of from about 0.1 to about 1.0, and a light absorbance molar extinction coefficient of at least 1,000. The magnitude of fluorescent signal, or relative fluorescence, is the product of the fluorescent quantum yield multiplied times the light absorbance molar extinction coefficient. […] The "relative performance", as this phrase is used herein, is the ratio of the relative fluorescence of a composition to the relative fluorescence of a given background medium. The fluorescence readings are typically measured at the excitation/emission wavelengths that represent major peaks for the given fluorescent tagged polymer. […] Some generalities may be considered. Industrial cooling waters generally have an overall higher fluorescent intensity than industrial boiler waters, and therefore a degree of polymer tagging that is reasonably high for use in boiler waters may not be sufficiently high for cooling waters, since of course the intensity of fluorescence must not be overwhelmed by the background fluorescence and the intensity of fluorescence is dependent on the concentration level of the fluorescent species. Similarly, a polymer that is to be used at high concentration levels in a given background medium need not be tagged to the same extent as one that is to be used at much lower concentration levels, other parameters being the same.
# Thus in Example 38 below a survey of relative performance values of a number of fluorescent derivatizing agents against a cooling water background is given as representative of the use of such screening method for any other group of derivatizing agents and any other type of background.
# The relative performances of a variety of fluorescent derivatizing agents were surveyed against a cooling water background as follows. An aqueous solution of each agent at a concentration level of 0.4 ppm (acid actives) and the fluorescent intensity of each agent at its fluorescence maximum was determined, in comparison to a fluorescence reference standard. The standard used was 1,5-naphthalene disulfonic acid, which is not a derivatizing agent for the purposes of the present invention because it has no amine functionality. This standard was also measured at its fluorescence maximum in an aqueous solution at a concentration of 0.4 ppm (acid actives) and its intensity was assigned a "relative intensity value" of 100%. The "relative intensity values" of each of the other compositions tested were assigned in relationship to the intensity of the standard. For instance, a composition that had twice the intensity of the standard (the standard and the composition each being measured at their own fluorescence maximums) would be given a relative intensity value of 200%. Then the relative intensity values of the various compositions were compared to that of the cooling water background at the fluorescent maximum (peak excitation/emission wavelengths) of the composition. The cooling water fluorescent intensity employed was the average relative intensity of ten representative cooling water formulations measured for combination of wavelengths of excitation and emission within the range required for this survey. The relative performance for each composition thus is the value determined by dividing the relative intensity value determined for the fluorescence of each composition by the relative intensity value of the background fluorescence of cooling water at the same combination of wavelengths. The identities of the various compositions surveyed and the values determined are set forth below in Table VII.
# rats = conditions: cited from earlier work
Compound,"Fluorescent Maximum, emission (em) [1] [nm]","Fluorescent Maximum, excitation (ex) [1] [nm]","Relative Intensity Value, Composition [1] [%]",Relative Performance [1],"Detectable fluorescence in the survey (in words) ([1]; Table VII survey, 0.4 ppm)",Reported LD50 (oral/rats) (rats) [grams/kilogram]
Nc1ccc(C(=O)O)cc1 [4-amino-benzoic acid],340,270,82,13,,
Nc1ccc2cc(S(=O)(=O)O)ccc2c1 [2-amino-6-naphthalene sulfonic acid],420,245,760,78,,> 5.0
Cc1ccc(N)c(S(=O)(=O)O)c1 [2-amino-5-methylbenzene sulfonic acid],370,240,19,3,,
Nc1ccccc1C(=O)O [2-amino-benzoic acid],400,240,110,13,,
Nc1ccc2ccc(S(=O)(=O)O)cc2c1 [2-amino-7-naphthalene sulfonic acid],440,245,446,48,,
"Nc1ccc2cc(S(=O)(=O)O)cc(S(=O)(=O)O)c2c1 [2-amino-6,8-naphthalene disulfonic acid]",445,250,69,7,,> 5.0
"1-amino-3,6-naphthalene trisulfonic acid",500,360,4,0,,
Nc1cccc2cccc(S(=O)(=O)O)c12 [1-amino-8-naphthalene sulfonic acid],,,0,0,did not provide detectable fluorescence,
Nc1cccc2ccc(S(=O)(=O)O)cc12 [1-amino-7-naphthalene sulfonic acid],480,340,80,7,,
Nc1ccc2ccccc2c1S(=O)(=O)O [2-amino-1-naphthalene sulfonic acid],485,245,150,7,,
Nc1cccc2cc(S(=O)(=O)O)ccc12 [1-amino-6-naphthalene sulfonic acid],485,245,74,3,,
"Nc1ccc2c(S(=O)(=O)O)cc(S(=O)(=O)O)cc2c1 [2-amino-5,7-naphthalene disulfonic acid]",460,250,776,97,,2.0
Nc1ccc(S(=O)(=O)O)cc1 [4-amino-benzene sulfonic acid],340,250,26,8,,
Nc1ccccc1 [aniline],340,230,4,1,,0.25
Nc1cccc(C(=O)O)c1 [3-amino-benzoic acid],370,240,21,3,,
"Nc1cc2ccc(S(=O)(=O)O)cc2cc1S(=O)(=O)O [2-amino-3,6-naphthalene disulfonic acid]",440,250,77,8,,
"Nc1cc(S(=O)(=O)O)ccc1S(=O)(=O)O [amino-2,5-benzene disulfonic acid]",380,310,54,4,,

# Now from value to compound, other results behind:
"Fluorescent Maximum, emission (em) [1] [nm]","Fluorescent Maximum, excitation (ex) [1] [nm]","Relative Intensity Value, Composition [1] [%]",Relative Performance [1],"Detectable fluorescence in the survey (in words) ([1]; Table VII survey, 0.4 ppm)",Compound,Reported LD50 (oral/rats) (rats) [grams/kilogram]
500,255,122,5,,"Nc1ccc(S(=O)(=O)O)c2cccc(S(=O)(=O)O)c12 [1-amino-4,8-naphthalene disulfonic acid]",
420,325,444,24,,Nc1ccc(S(=O)(=O)O)c2ccccc12 [1-amino-4-naphthalene sulfonic acid],
420,250,486,49,,"Nc1ccc2c(S(=O)(=O)O)cccc2c1S(=O)(=O)O [2-amino-1,5-naphthalene disulfonic acid]",
440,240,638,75,,Nc1ccc2cccc(S(=O)(=O)O)c2c1 [2-amino-8-naphthalene sulfonic acid],
330,290,100,14,,"O=S(=O)(O)c1cccc2c(S(=O)(=O)O)cccc12 [1,5-naphthalene disulfonic acid]",
480,240,14,0,,Nc1cccc2c(S(=O)(=O)O)cccc12 [1-amino-5-naphthalene sulfonic acid],
440,245,,,,"Nc1cc(S(=O)(=O)O)c2cccc(S(=O)(=O)O)c2c1 [2-amino-4,8-naphthalene disulfonic acid]",
440,245,750,82,,Nc1ccc2c(S(=O)(=O)O)cccc2c1 [2-amino-5-naphthalene sulfonic acid],
480,245,540,25,,"Nc1cc(S(=O)(=O)O)cc2cccc(S(=O)(=O)O)c12 [1-amino-3,8-naphthalene disulfonic acid]",

# Reference: patent publication US5260386A, “Synthesis of tagged polymers by post-polymerization (trans) amidation reaction” (Nalco Chemical Company, priority 1993, dated 1993)
